Literature values, collected in patent US20230168217A1, “Test strip for the detection of neutral analytes in a sample” (priority 2020, published 2023).
Several values for one entry are separate records, joined by “and”; a condition that tells them apart may be missing. Equal entries are not always repeated. Where two headings read alike, the source gives them in different places.

Assays:
[1] = previously reported
[2] = not given; remark: listed apart in the source

Row | SMILES | concentrations in fatal cases of poisoning | Protein bound fractions [1] | Serum levels predicting hepatotoxicity ([2]; 4 hours postingestion) | Serum levels predicting hepatotoxicity ([2]; 24 h post-ingestion)
1 | CN1CC[C@]23c4c5ccc(O)c4O[C@H]2[C@@H](O)C=C[C@H]3[C@H]1C5 [morphine] | approximately 1.75 µM |  |  | 
2 | CC(=O)Nc1ccc(O)cc1 [paracetamol] |  | 20-25% | ≥ 200 µg/ml and ≥ 1.323 mM | ≥ 6.25 µg/mL and ≥ 43.1 µM
3 | COc1cccc(C2(O)CCCCC2CN(C)C)c1 (centres unmarked) [tramadol] | ~3.8 µM |  |  | 
